System: JC syngeneic mouse breast adenocarcinoma-derived subcutaneous tumor
Assay: JC Study 6: mouse JC syngeneic tumor model, individual tumor volume
Assay type: in vivo
Conditions: Compound I-263a 7.5 mg/kg IV or anti-mPD-1 10 mg/kg IP, BIWx3 till Day 14
Procedure: JC Study 6: JC is a mouse breast adenocarcinoma cell line. JC mouse syngeneic tumor model was generated by subcutaneous inoculation with 0.2×10^6 JC cells (cell suspension) in 10 weeks old female BALB/c mice (Vital River Laboratory Animal Technology Co., Ltd., Beijing, China) in the flank. When the mean tumor volume reached approximately 45 mm^3, the animals were randomized into one vehicle control and five treatment groups (n=8/group). Mice were then dosed with 20% HPbCD or Compound I-263a or anti-mouse PD-1 antibody over a 21-day period. Tumor growth and body weight were measured twice per week during the treatment and post-treatment periods, and mice were humanely euthanized once they had reached their humane endpoint.
Study 6: A 0.75 mg/mL stock solution of Compound I-263a was formulated weekly in 20% HPβCD and administered intravenously (IV) based on exact animal body weight on each day of treatment, using a dosing volume of 10 mL/kg body weight. Final doses received were 7.5 mg/kg. Dosing volume for Compound I-263a was 0.2 mL. […]
Tumors were measured twice weekly using vernier calipers. Tumor volumes were calculated using standard equation: V=W^2×L/2, where V=volume, W=width, and L=length for the tumor. […] Tumor size and body weight were measured twice a week for the duration of the study. […]

For `Cc1sc(C(=O)c2cncnc2N[C@@H]2C[C@H](COS(N)(=O)=O)[C@@H](O)C2)cc1[C@@H]1NCCc2ccc(Cl)cc21` [Compound I-263a, [(1R,2S,4R)-4-{[5-({4-[(1R)-7-chloro-1,2,3,4-tetrahydroisoquinolin-1-yl]-5-methyl-2-thienyl}carbonyl)pyrimidin-4-yl]amino}-2-hydroxycyclopentyl]methyl sulfamate], which “tumor growth inhibition / antitumor activity” value (8 tumors/group) is on record?
The value was “very little tumor growth inhibition”.

And the “tumors with slight growth delay” value (delay from day 16-18, out of 8 implanted)?
Its value is “one”.

Source: patent US12419890B2, “Administration of sumo-activating enzyme inhibitor and checkpoint inhibitors” (Takeda Pharmaceutical Company Limited, priority 2019, dated 2025)
